Data as given in US8945518B2, “Formulation of dual eicosanoid system and cytokine system inhibitors for use in the prevention and treatment of oral diseases and conditions” (Unigen, Inc., priority 2002, dated 2015).
pIC50: −log10 of the molar value.

What was measured:
[1] = system: newly synthesized LTB4 (5-LOX pathway) in HT-29 cells; test: LTB4 competitive ELISA in HT-29 cells; assay type: cell-based; conditions: Homo sapiens, 3 μg/mL, 48 hrs
Description: A competitive ELISA for Leukotriene B4 (LTB4; Neogen, Inc., Cat#406110) was used to assess the effect of this UP676 formulation on newly synthesized levels of LTB4 present in each cell line as a measure UP676's inhibitory effect on the 5-LOX pathway. The assay was performed in duplicate by adding 160,000 to 180,000 cells per well in 6-well plates. […] Each treated cell line was then harvested by centrifugation and disrupted by gentle dounce homogenization lysis in physiological buffers.

COX-1 and COX-2 enzymes = conditions: cited from earlier work
[2] = system: cox-2 gene transcription in human colon cancer DLD-1 cells; conditions: Mutoh et al. (2000), read-out: IC50, suppression of cox-2 gene transcription; cited from earlier work
recombinant ovine COX-1 = target: T1, recombinant ovine COX-1 (Ovis aries, UniProt P05979); test: COX-1 peroxidase activity inhibition (TMPD, 96-well); assay type: biochemical
T1 sequence (P05979 25-600): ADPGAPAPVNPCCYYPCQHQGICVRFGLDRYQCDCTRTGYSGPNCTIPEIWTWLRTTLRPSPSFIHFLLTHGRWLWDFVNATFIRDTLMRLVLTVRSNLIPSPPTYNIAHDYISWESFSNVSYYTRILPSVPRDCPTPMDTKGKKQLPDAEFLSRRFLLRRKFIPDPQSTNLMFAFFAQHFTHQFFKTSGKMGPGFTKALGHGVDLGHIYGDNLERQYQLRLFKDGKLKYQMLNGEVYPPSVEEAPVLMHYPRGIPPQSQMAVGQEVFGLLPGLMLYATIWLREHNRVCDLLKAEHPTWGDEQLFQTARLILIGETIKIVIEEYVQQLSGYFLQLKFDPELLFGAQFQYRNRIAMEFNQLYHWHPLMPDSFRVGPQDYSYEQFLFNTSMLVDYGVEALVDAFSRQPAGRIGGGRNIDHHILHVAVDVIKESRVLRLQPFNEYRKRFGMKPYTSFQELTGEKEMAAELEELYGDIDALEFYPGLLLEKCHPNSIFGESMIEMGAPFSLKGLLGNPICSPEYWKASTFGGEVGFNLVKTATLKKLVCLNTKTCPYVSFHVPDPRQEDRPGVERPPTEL
Description: (§1) In order to screen for compounds that inhibited the COX-1 and COX-2 activities, a high throughput, in vitro assay was developed that utilized the inhibition of the peroxidase activity of both enzymes. […] Briefly, the composition or compound being examined was titrated against a fixed amount of COX-1 and COX-2 enzymes. A cleavable, peroxide chromophore was included in the assay to visualize the peroxidase activity of each enzyme in presence of arachidonic acid as a cofactor. Typically, assays were performed in a 96-well format. Each inhibitor, taken from a 10 mg/mL stock solution in 100% DMSO, was tested in triplicate at room temperature using the following range of concentrations: 0, 0.1, 1, 5, 10, 20, 50, 100, and 500 μg/mL. […] The components were mixed for 10 seconds on a rotating platform, followed by the addition of 20 μL of 2 mM N,N,N′N′-tetramethyl-p-phenylenediamine dihydrochloride (TMPD) and 20 μL of 1.1 mM arachidonic acid to initiate the reaction. The plate was shaken for 10 seconds and then incubated 5 minutes before reading the absorbance at 570 nm. The inhibitor concentration vs. % inhibition was plotted and the IC50 determined by taking the half-maximal point along the isotherm and intersecting the concentration on the X-axis. The IC50 was then normalized to the number of enzyme units in the assay.

[3] = Stability of catechin in solution; assay type: physicochemical
Description: A total of 6 different conditions (not including control solution) were chosen for this stability investigation at 45° C. Aqueous K2HPO4 (0.5 M) or KH2PO4 (0.5 M) was utilized to make buffered solutions at pH 5 or 8, respectively. […] All seven solutions were stored in sealed bottles at 45° C.
All eight solutions were stored in sealed bottles at 45° C.

[4] = literature studies of bioavailability; cited from earlier work
[5] = system: prostaglandin endoperoxide synthase; conditions: Kalkbrenner et al. (1992); cited from earlier work
[6] = Oxygen Radical Absorption Capacity (ORAC)
recombinant ovine COX-2 = target: T2, recombinant ovine COX-2 (Ovis aries, UniProt P79208); test: COX-2 peroxidase activity inhibition (TMPD, 96-well); assay type: biochemical; conditions: IC50 normalized to enzyme units
T2 sequence (P79208 17-603): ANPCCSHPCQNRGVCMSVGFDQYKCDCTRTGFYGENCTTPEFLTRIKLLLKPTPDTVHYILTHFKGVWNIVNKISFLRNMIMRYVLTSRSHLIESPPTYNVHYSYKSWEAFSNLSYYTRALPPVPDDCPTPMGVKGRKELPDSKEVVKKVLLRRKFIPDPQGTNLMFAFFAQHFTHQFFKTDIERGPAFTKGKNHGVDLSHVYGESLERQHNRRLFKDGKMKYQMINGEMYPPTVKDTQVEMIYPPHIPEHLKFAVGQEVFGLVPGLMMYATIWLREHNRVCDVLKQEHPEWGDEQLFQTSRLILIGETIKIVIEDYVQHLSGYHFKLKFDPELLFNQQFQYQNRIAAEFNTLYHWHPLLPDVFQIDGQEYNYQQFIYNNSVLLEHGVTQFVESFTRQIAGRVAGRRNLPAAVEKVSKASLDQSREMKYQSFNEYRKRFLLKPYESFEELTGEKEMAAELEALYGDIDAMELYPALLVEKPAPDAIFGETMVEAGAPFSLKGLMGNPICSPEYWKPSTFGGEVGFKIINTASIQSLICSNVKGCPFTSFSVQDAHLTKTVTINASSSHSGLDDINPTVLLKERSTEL
Description: as §1

Structure (SMILES): CC(C)Cc1ccc(C(C)C(=O)O)cc1 (stereo not drawn) [Ibuprofen, ibuprofen]
- inhibition at 3 µg/mL [1]: 20%

Structure (SMILES): CC(=O)Oc1ccccc1C(=O)O [aspirin]
- times more potent against COX-1 than COX-2 (COX-1 and COX-2 enzymes): more than 150 times

Structure (SMILES): Oc1cc(O)c2c(c1)OC(c1ccc(O)c(O)c1)C(O)C2 (stereo not drawn) [Catechin]
- pIC50 [2]: 3.38
- selectivity against the COX-1 enzyme (recombinant ovine COX-1; catechin in the UP676 formulation, COX-1 over COX-2): 2.3 fold
- stability of catechin in solution, basic conditions or metal ions ([3]; basic conditions or metal ions such as Fe3+): not under basic conditions or when exposed to metal ions
- stability of catechin in solution, neutral conditions ([3]; neutral conditions, 4° C. and 40° C.): stable
- stability of catechin in solution, weakly basic ([3]; pH=7.5): decomposes
- half life [4]: 2 h
- pIC50 [5]: 4.40
- Oxygen Radical Absorption Capacity (ORAC) [6]: 20,000

Structure (SMILES): O=C(O)[C@H]1O[C@@H](Oc2cc3oc(-c4ccccc4)cc(=O)c3c(O)c2O)[C@H](O)[C@@H](O)[C@@H]1O [Baicalin]
- IC50 for COX-1 (recombinant ovine COX-1; peroxidase activity, IC50 normalized to enzyme units): 0.44 μg/mL/unit of enzyme
- IC50 for COX-2 (recombinant ovine COX-2): 0.28 μg/mL/unit
